Experimental data: patent publication US9872840B2, “Effect of garcinol in delaying the progression of diabetic nephropathy” (Delhi Institute of Pharmaceutical Sciences and Research, priority 2013, dated 2018)

Columns and labels:
[1] = system: STZ diabetic rats; assay: Fasting and post prandial blood glucose in STZ diabetic rats; format: in vivo, rat; set-up: Reduction of post prandial glucose: concentration or dose not given beside the values; details: for Reduction of fasting blood glucose / Reduction of post prandial glucose: 8 weeks treatment; for Reduction of post prandial glucose: compared to diabetic group; for Blood glucose, fasting, before treatment / Blood glucose, post prandial, before treatment: baseline before treatment; for Blood glucose, fasting, before treatment / Blood glucose, post prandial, before treatment / Blood glucose, fasting, after treatment / Blood glucose, post prandial, after treatment: mean ± S.E.M., eight animals; for Blood glucose, fasting, after treatment / Blood glucose, post prandial, after treatment: once daily for 8 weeks, garcinol 200 mg/kg, olmesartan 6 mg/kg/day, glimepiride 1 mg/kg/day
Experimental: (§1) The Garcinol used for the experimental studies was bought from Sami Labs, Hyderabad. It was administered at the dose of 200 mg/kg dispersed in water with 1% CMC. Further, the experimental procedures were conducted according to the Institutional Animal Ethical Committee (protocol no. DIPSAR/IAEC/2009/01) and CPCSEA guidelines. All rats were housed under conventional conditions with controlled temperature, humidity and light (12 hours light-dark cycle), and were provided with a standard commercial diet and water (ad libitum). Healthy albino rats of Wistar strain were kept for breeding. Diabetes was induced by administration of streptozotocin (STZ, 90 mg/kg, i.p.) to a group of 2 day old pups. Age-matched control rats were given an equal volume of vehicle and considered as ‘Normal’ group of rats. Six weeks after injection, the blood glucose level was measured from the tail vein. Rats with a fasting blood glucose level over 160 mg/dl were considered as diabetic.
(§2) After 6 weeks, four groups of animals, each comprising of 8 animals were made. The groups were assigned to receive vehicle or garcinol (200 mg/kg dispersed in 1% CMC); Olmesartan (6 mg/kg/day) and Glimepiride (1 mg/kg/day) once daily for 8 weeks. After the final drug administration, body weight was measured and blood samples were collected in both fasting and post prandial conditions. The kidney of treated and untreated animals were isolated and fixed in 10% buffered formalin solution to prepare paraffin sections.
However, the decrease was less than antidiabetic reference glimepiride treatment (˜27%). Moreover, the reduction of post prandial glucose with garcinol treatment (˜36%) was more than olmesartan (˜10%) but was lower than observed with glimepiride treatment (almost 43%) when compared to diabetic group.

[2] = system: STZ diabetic rats; assay: Homeostatic model assessment (HOMA-Index, β-cell function) in STZ diabetic rats; format: in vivo, rat; details: STZ diabetic rats after treatment; mean ± S.E.M., five animals
Excerpt: The homeostatic model assessment (HOMA) is a method used to quantify insulin resistance and beta-cell function (Homeostasis model assessment: insulin resistance and beta-cell function from fasting plasma glucose and insulin concentrations in man. Diabetologia 28: 412-9.). The approximating equation for insulin resistance, in the early model, used a fasting plasma sample, and was derived by use of the insulin-glucose product, divided by a constant. HOMA-IR=(Glucose×Insulin)/405;HOMA-% B=([…])/(Glucose-63)
Where IR is insulin resistance and % B is the β-cell function where Glucose is given in mg/dl and Insulin is given in μU/mL (both during fasting). Garcinol inhibited insulin resistance assessed by HOMA-Index with significance when compared with the diabetic group.

[3] = system: STZ diabetic rats; assay: Hemodynamic parameters by tail cuff apparatus; format: in vivo, rat
Experimental: Hemodynamic parameters were measured using tail cuff apparatus (Non-invasive measurement of Blood Pressure-Kent Scientific, USA). Garcinol was also observed to improve the systolic, diastolic and mean Blood Pressure.

[4] = system: STZ diabetic rats; assay: Renal function and biochemical parameters in plasma/serum of STZ diabetic rats; format: in vivo, rat; details: 8 weeks, garcinol 200 mg/kg, olmesartan 6 mg/kg, glimepiride 1 mg/kg
Experimental: as §1, §2
Biochemical estimation for glucose, insulin, albumin and total proteins; glomerular proteins (viz β-2 microglobulin, serum cystatin c and serum creatinine) for the determination of GFR; inflammatory cytokines and growth factors like Tumor necrosis factor (TNF-α), Nitric Oxide (NO), Transforming growth factor (TGF-β1) and Vascular endothelial growth factor (VEGF) and kidney specific molecular markers involving adiponectin and erythropoietin were made in plasma/serum.

[5] = system: STZ diabetic rats; assay: Kidney histopathology, glomerulosclerotic index (periodic acid-Schiff); format: in vivo, rat; details: 8 weeks; for GSI (glomerulosclerotic index): kidney of STZ diabetic rats, sclerosis graded 0 to 4, garcinol 200 mg/kg, olmesartan 6 mg/kg, glimepiride 1 mg/kg
Excerpt: (§3) Kidney sections were stained with periodic acid-Schiff's reagent and Masson's modified trichrome to assess glomerulosclerosis and collagenous tubulointerstitial matrix, respectively.
In 4 μm kidney sections stained with periodic acid-Schiff's reagent, 150 glomeruli from each animal were examined. The extent of sclerosis in each glomerulus was subjectively graded on a scale of 0 to 4, with the following grades: grade 0 normal, grade 1 sclerotic area <25% (minimal), grade 2 sclerotic area 25-50% (moderate), grade 3 sclerotic area 50-75% (moderate to severe) and grade 4 sclerotic area 75-100% (severe). A glomerulosclerotic index was then calculated using the formula: […]
Where GSI is glomerulosclerotic index, Fi is the % of glomeruli in the rat with a given score (i).

[6] = system: STZ diabetic rats; assay: Tubulointerstitial matrix index (Masson's trichrome); format: in vivo, rat; details: kidney of STZ diabetic rats, 8 weeks; semi-quantified; garcinol 200 mg/kg, olmesartan 6 mg/kg, glimepiride 1 mg/kg
Experimental: as §3
The accumulation of matrix within the tubulointerstitial was assessed on Masson's trichrome stained sections. Blue area on a trichrome-stained section was selected for its color range and the proportional area of tissue with this range of color was then semi-quantified as tubulointerstitial matrix index (TIMI).

[7] = system: rat nephrin; assay: Immunohistochemistry for nephrin in kidney; format: in vivo; details: kidney of STZ diabetic rats, 8 weeks; garcinol 200 mg/kg, olmesartan 6 mg/kg, glimepiride 1 mg/kg
Experimental: Immunohistochemistry was done as previously described according to a modified method using a Polyclonal (C-Terminus) Antibody which is identical to rat nephrin. These experiments were done using 4 micron […] kidney sections, as previously reported. Paraffin-embedded tissues sections were deparaffinized in microwave oven for 3 minutes. The sections were rehydrated in graded series of xylene and alcohols. Endogenous peroxidase activity was blocked by 3% hydrogen peroxide in distilled water for 15 minutes. Antigen retrieval was achieved by steam heating in a solution of citrate buffer, pH 6.0 for 30 minutes. Sections were blocked with 10% normal goat serum for polyclonal antibodies. Sections were then incubated for one hour with primary antibody Polyclonal (C-Terminus) Antibody which is identical to rat nephrin. The sections were then incubated in avidin-biotin complex at 1:25 dilution for 30 min at room temperature and developed using diaminobenzidine (DAB) as chromogen. After washing, the sections were counter-stained with hematoxylin and coverslipped. Negative controls were carried out by incubation in the absence of the primary antibody. The quantification of nephrin was done using point counting technique for each animal as described in established method. Davis B J, Johnston C I, Burrell, L M, Burns W C, Kubota E, Cao Z, Cooper M E, Allen T J. Renoprotective effects of vasopeptidase inhibition in an experimental model of diabetic nephropathy. Diabetologia. 2003; 46(7): 961-71.

[8] = system: STZ diabetic rats; assay: DNA fragmentation assay (TUNEL) for apoptosis in kidney; format: in vivo, rat; details: for Apoptosis: kidney of STZ diabetic rats, 8 weeks, garcinol 200 mg/kg, olmesartan 6 mg/kg, glimepiride 1 mg/kg; for DNA fragmentation / apoptosis in kidney (qualitative): kidney of diabetic rats, FIG. 4
Experimental: For detection and localization of apoptosis in kidney, the technique of terminal deoxynucleotidyl transferase-mediated dUTP nick end labeling (TUNEL) (Apo-BrdU-IHC™ In Situ DNA Fragmentation Assay Kit, Biovison, USA) were employed. Briefly, sections were deparaffinized, hydrated, and digested with proteinase K (20 μg/ml), and then added biotinylated dUTP to the 3′ end of DNA fragments by incubating sections in 0.05 mol/l Tris-HCl buffer (pH 7.6) with 0.03 U/μl TdT and 0.04 nmol/μl biotin-11-dUTP at 37° C. for 1 h. The sections were rinsed in PBS. Endogenous peroxidase was blocked with 0.3% H2O2 in distilled H2O. The sections were rinsed with PBS and covers with 2% blocking solution in 0.1 mol/l sodium maleate to reduce background staining. The sections were then incubated with avidin-peroxidase complexes in PBS (1:50) for 30 min and rinsed with PBS (3×5 min). Peroxidase activity was visualized with 3,3′-diaminobenzidine until the brown product was clearly visible. The sections were then counterstained with methyl green. The positive apoptotic cells were the cells with brown nucleus 2.10.

[9] = system: glucose transporter 2 (GLUT2); assay: GLUT-2 protein expression in liver of diabetic rats (Western blot); format: in vivo, rat; details: 8 weeks treatment, FIG. 3
Experimental: (§4) For determination of glucose transporter 2 (GLUT2) protein expressions in liver and glucose transporter 4 (GLUT4) protein expressions in skeletal muscle; each sample prepared was mixed with 1% sodium dodecyl sulfate and 50 mM dithiothreitol, and the mixture was subjected to electrophoresis with 10% polyacrylamide gel. The separated proteins on the gel were electrotransferred to a polyvinylidene difluoride membrane. After blocking with 5% skim milk solution including 0.05% Poly (Oxyethylene) sorbitan monolaurate (Tween 20) overnight at 4° C., the membrane was reacted with anti-GLUT-2 antibody (Abcam, UK) & anti-GLUT-4 antibody (Abcam, UK) for 2 h. Subsequently, it was incubated with horseradish peroxidase conjugated IgG (diluted 1:2000) [Jackson immunoresearch laboratories, USA] for 2 h at room temperature (Western Blot). Reduced qualitative expression of GLUT2 and GLUT 4 in liver and muscle respectively of diabetic rats were improved with the garcinol treatment (FIG. 3), which were better than observed with olmesartan.

[10] = system: glucose transporter 4 (GLUT4); assay: GLUT-4 protein expression in soleus muscle of diabetic rats (Western blot); format: in vivo, rat; details: 8 weeks treatment, FIG. 3
Experimental: as §4

Compound	Reduction of fasting blood glucose [1]	Reduction of post prandial glucose [1]	Blood glucose, fasting, before treatment [1]	Blood glucose, post prandial, before treatment [1]	Blood glucose, fasting, after treatment [1]	Blood glucose, post prandial, after treatment [1]	% BETA-CELL FUNCTION [2]	HOMA-INDEX [2]	Adiponectin [4]	Beta-2 microglobulin (GFR) [4]	Erythropoietin [4]	Nitric Oxide [4]	Plasma Insulin [4]	Serum Creatinine (GFR) [4]	Serum CystatinC (GFR) [4]	TGF-β [4]	TNF-α [4]	Total Proteins [4]	VEGF [4]	GSI (glomerulosclerotic index) [5]	other results
C=C(C)[C@@H](CC=C(C)C)C[C@@]12C[C@@H](CC=C(C)C)C(C)(C)[C@@](CC=C(C)C)(C(=O)C(C(=O)c3ccc(O)c(O)c3)=C1O)C2=O [Garcinol]	~18%	~36%	166.2 ± 4.9 mg/dL	287 ± 24.7 mg/dL	136.2 ± 5.86 mg/dL	190 ± 5.27 mg/dL	31.4 ± 3.17	1.55 ± 0.0827	3.297 ± 0.56 µg/mL	0.3488 ± 0.12 µg/mL	0.3508 ± 0.029 mlU/ml	0.32 ± 0.026 nmol/µL	12.13 ± 1.17 ng/mL	1.804 ± 0.36 mg/dL	0.4098 ± 0.028 ng/mL	3.908 ± 0.82 pg/mL	0.04059 ± 0.0092 pg/mL	2.05 ± 0.14 mg/mL	57.21 ± 3.89 pg/mL	1.4	Diastolic blood pressure, after Garcinol administration ([3]; after Garcinol administration): 112; Mean blood pressure, after Garcinol administration ([3]; after Garcinol administration): 125; Systolic blood pressure, after Garcinol administration ([3]; after Garcinol administration): 153; Diastolic blood pressure, before treatment ([3]; before treatment): 127; Mean blood pressure, before treatment ([3]; before treatment): 139; Systolic blood pressure, before treatment ([3]; before treatment): 165; TIMI (tubulointerstitial matrix index) [6]: 2; Nephrin [7]: 50 % FA; Apoptosis [8]: 20 % FA
CCC1=C(C)CN(C(=O)NCCc2ccc(S(=O)(=O)NC(=O)N[C@H]3CC[C@H](C)CC3)cc2)C1=O [Glimepiride, glimepiride]	~27%	~43%	165.2 ± 1.5 mg/dL	308 ± 4.98 mg/dL	119.2 ± 5.4 mg/dL	174 ± 3.75 mg/dL	35.6 ± 5.24	1.53 ± 0.144	2.277 ± 0.86 µg/mL	1.42 ± 0.21 µg/mL	0.5141 ± 0.13 mlU/ml	0.33 ± 0.064 nmol/µL	14.38 ± 1.29 ng/mL	1.873 ± 0.56 mg/dL	0.2933 ± 0.033 ng/mL	8.316 ± 2.06 pg/mL	0.08563 ± 0.0167 pg/mL	1.956 ± 0.09 mg/mL	61.29 ± 2.54 pg/mL	2.8	Qualitative expression of GLUT2 in liver [9]: did not show any improvement; Qualitative expression of GLUT 4 in muscle [10]: did not show any improvement; TIMI (tubulointerstitial matrix index) [6]: 2; Nephrin [7]: 20 % FA; Apoptosis [8]: 90 % FA; DNA fragmentation / apoptosis in kidney (qualitative) [8]: no change in the decrease in apoptosis
CCCc1nc(C(C)(C)O)c(C(=O)OCc2oc(=O)oc2C)n1Cc1ccc(-c2ccccc2-c2nnn[nH]2)cc1 [Olmesartan, olmesartan medoxomil]	14%	~10%	162.7 ± 4.34 mg/dL	288 ± 6.82 mg/dL	139.7 ± 5.05 mg/dL	259 ± 7.16 mg/dL	21.7 ± 1.98	1.7 ± 0.095	0.93 ± 0.18 µg/mL	0.6529 ± 0.21 µg/mL	0.2657 ± 0.047 mlU/ml	0.34 ± 0.097 nmol/µL	12.74 ± 1.48 ng/mL	2.063 ± 0.41 mg/dL	0.4617 ± 0.048 ng/mL	5.963 ± 0.896 pg/mL	0.05665 ± 0.013 pg/mL	2.123 ± 0.11 mg/mL	66.3 ± 1.14 pg/mL	1.4	Histopathological changes in kidney (qualitative) ([5]; kidney of diabetic rats, FIG. 4): improvement in tubular injury was visible; TIMI (tubulointerstitial matrix index) [6]: 1; Nephrin [7]: 62.5 % FA; Apoptosis [8]: 40 % FA; DNA fragmentation / apoptosis in kidney (qualitative) [8]: decrease in the DNA fragmentation was clearly observed qualitatively
